What was measured:
Test in all cases: relative viability (nuclei count vs DMSO), 5 days (fraction); higher = more cells survive
[1] = system: HCC-78
Method in brief: (§1)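 Lung cancer cell lines, seeded in 1536-well plates, were treated the following day by pin tool with a single drug or with five library-drug doses (not always all listed) in √10 steps on top of a fixed anchor-drug dose. Cells were fixed and nuclei stained in one step after 5 days, and nuclei were counted. Relative viability is the nuclei count for treated wells divided by that for vehicle wells, reported as medians of duplicate plates.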

[2] = system: LCLC-103H
Method in brief: as §1

[3] = system: NCI-H2126
Method in brief: as §1

[4] = system: HCC-827
Method in brief: as §1

[5] = system: NCI-H2085
Method in brief: as §1

[6] = system: NCI-H23
Method in brief: as §1

[7] = system: SK-LU-1
Method in brief: as §1

[8] = system: RERF-LC-KJ
Method in brief: as §1

[9] = system: LK-2
Method in brief: as §1

[10] = system: NCI-H1975
Method in brief: as §1

[11] = system: NCI-H3122
Method in brief: as §1

[12] = system: ChaGo-K-1
Method in brief: as §1

[13] = system: HCC-366
Method in brief: as §1

[14] = system: EMC-BAC-2
Method in brief: as §1

[15] = system: LU99A
Method in brief: as §1

[16] = system: NCI-H2405
Method in brief: as §1

[17] = system: NCI-H1666
Method in brief: as §1

[18] = system: EPLC-272H
Method in brief: as §1

[19] = system: SW 1573
Method in brief: as §1

[20] = system: SW 900
Method in brief: as §1

[21] = system: LOU-NH91
Method in brief: as §1

[22] = system: LXF-289
Method in brief: as §1

[23] = system: HCC-44
Method in brief: as §1

Compound: COc1cc(N2CCC(C(N)=O)CC2)ccc1Nc1nc(N)c(Cl)c(Nc2ccccc2S(=O)(=O)C(C)C)n1 [HG-5-88-01] + CC(=O)Nc1cccc(-n2c(=O)n(C3CC3)c(=O)c3c(Nc4ccc(I)cc4F)n(C)c(=O)c(C)c32)c1 [Trametinib] (partner 0.02 µM)
- relative viability ([1]; first compound 0.04 µM): 0.737
- relative viability ([1]; first compound 0.1265 µM): 0.455
- relative viability ([1]; first compound 0.4 µM): 0.492
- relative viability ([1]; first compound 1.265 µM): 0.289
- relative viability ([1]; first compound 4 µM): 0.348
- relative viability ([2]; first compound 0.04 µM): 0.693
- relative viability ([2]; first compound 0.1265 µM): 0.649
- relative viability ([2]; first compound 0.4 µM): 0.52
- relative viability ([2]; first compound 1.265 µM): 0.69
- relative viability ([2]; first compound 4 µM): 0.732
- relative viability ([3]; first compound 0.04 µM): 0.592
- relative viability ([3]; first compound 0.1265 µM): 0.564
- relative viability ([3]; first compound 0.4 µM): 0.557
- relative viability ([3]; first compound 1.265 µM): 0.543
- relative viability ([3]; first compound 4 µM): 0.558
- relative viability ([4]; first compound 0.04 µM): 0.529
- relative viability ([4]; first compound 0.1265 µM): 0.463
- relative viability ([4]; first compound 0.4 µM): 0.538
- relative viability ([4]; first compound 1.265 µM): 0.18
- relative viability ([4]; first compound 4 µM): 0.269
- relative viability ([5]; first compound 0.04 µM): 0.613
- relative viability ([5]; first compound 0.1265 µM): 0.553
- relative viability ([5]; first compound 0.4 µM): 0.502
- relative viability ([5]; first compound 1.265 µM): 0.478
- relative viability ([5]; first compound 4 µM): 0.432
- relative viability ([6]; first compound 0.04 µM): 0.383
- relative viability ([6]; first compound 0.1265 µM): 0.336
- relative viability ([6]; first compound 0.4 µM): 0.366
- relative viability ([6]; first compound 1.265 µM): 0.28
- relative viability ([6]; first compound 4 µM): 0.247
- relative viability ([7]; first compound 0.04 µM): 0.394
- relative viability ([7]; first compound 0.1265 µM): 0.388
- relative viability ([7]; first compound 0.4 µM): 0.451
- relative viability ([7]; first compound 1.265 µM): 0.474
- relative viability ([7]; first compound 4 µM): 0.363
- relative viability ([8]; first compound 0.04 µM): 0.79
- relative viability ([8]; first compound 0.1265 µM): 0.902
- relative viability ([8]; first compound 0.4 µM): 0.744
- relative viability ([8]; first compound 1.265 µM): 0.713
- relative viability ([8]; first compound 4 µM): 0.714
- relative viability ([9]; first compound 0.04 µM): 0.927
- relative viability ([9]; first compound 0.1265 µM): 0.911
- relative viability ([9]; first compound 0.4 µM): 0.728
- relative viability ([9]; first compound 4 µM): 0.514
- relative viability ([10]; first compound 0.04 µM): 0.4
- relative viability ([10]; first compound 0.1265 µM): 0.446
- relative viability ([10]; first compound 0.4 µM): 0.331
- relative viability ([10]; first compound 1.265 µM): 0.329
- relative viability ([10]; first compound 4 µM): 0.247
- relative viability ([11]; first compound 0.04 µM): 0.223
- relative viability ([11]; first compound 0.1265 µM): 0.169
- relative viability ([11]; first compound 0.4 µM): 0.154
- relative viability ([11]; first compound 1.265 µM): 0.132
- relative viability ([11]; first compound 4 µM): 0.0965
- relative viability ([12]; first compound 0.04 µM): 0.868
- relative viability ([12]; first compound 0.1265 µM): 0.908
- relative viability ([12]; first compound 0.4 µM): 0.843
- relative viability ([12]; first compound 1.265 µM): 0.925
- relative viability ([12]; first compound 4 µM): 0.875
- relative viability ([13]; first compound 0.04 µM): 0.429
- relative viability ([13]; first compound 0.1265 µM): 0.366
- relative viability ([13]; first compound 0.4 µM): 0.365
- relative viability ([13]; first compound 1.265 µM): 0.361
- relative viability ([13]; first compound 4 µM): 0.243
- relative viability ([14]; first compound 0.04 µM): 0.927
- relative viability ([14]; first compound 0.1265 µM): 0.939
- relative viability ([14]; first compound 0.4 µM): 0.8
- relative viability ([14]; first compound 1.265 µM): 0.564
- relative viability ([14]; first compound 4 µM): 0.632
- relative viability ([15]; first compound 0.04 µM): 0.584
- relative viability ([15]; first compound 0.1265 µM): 0.565
- relative viability ([15]; first compound 0.4 µM): 0.543
- relative viability ([15]; first compound 1.265 µM): 0.429
- relative viability ([15]; first compound 4 µM): 0.493
- relative viability ([16]; first compound 0.04 µM): 0.676
- relative viability ([16]; first compound 0.1265 µM): 0.706
- relative viability ([16]; first compound 0.4 µM): 0.529
- relative viability ([16]; first compound 1.265 µM): 0.455
- relative viability ([16]; first compound 4 µM): 0.545
- relative viability ([17]; first compound 0.04 µM): 0.942
- relative viability ([17]; first compound 0.1265 µM): 0.918
- relative viability ([17]; first compound 0.4 µM): 0.853
- relative viability ([17]; first compound 1.265 µM): 0.775
- relative viability ([17]; first compound 4 µM): 0.621
- relative viability ([18]; first compound 0.04 µM): 0.316
- relative viability ([18]; first compound 0.1265 µM): 0.308
- relative viability ([18]; first compound 0.4 µM): 0.279
- relative viability ([18]; first compound 1.265 µM): 0.205
- relative viability ([18]; first compound 4 µM): 0.0984
- relative viability ([19]; first compound 0.04 µM): 0.598
- relative viability ([19]; first compound 0.1265 µM): 0.533
- relative viability ([19]; first compound 0.4 µM): 0.581
- relative viability ([19]; first compound 1.265 µM): 0.464
- relative viability ([19]; first compound 4 µM): 0.52
- relative viability ([20]; first compound 0.04 µM): 0.941
- relative viability ([20]; first compound 0.1265 µM): 0.943
- relative viability ([20]; first compound 0.4 µM): 0.875
- relative viability ([20]; first compound 1.265 µM): 0.627
- relative viability ([20]; first compound 4 µM): 0.685
- relative viability ([21]; first compound 0.04 µM): 0.74
- relative viability ([21]; first compound 0.1265 µM): 0.787
- relative viability ([21]; first compound 0.4 µM): 0.602
- relative viability ([21]; first compound 1.265 µM): 0.567
- relative viability ([21]; first compound 4 µM): 0.579
- relative viability ([22]; first compound 0.04 µM): 0.672
- relative viability ([22]; first compound 0.1265 µM): 0.692
- relative viability ([22]; first compound 0.4 µM): 0.511
- relative viability ([22]; first compound 1.265 µM): 0.677
- relative viability ([22]; first compound 4 µM): 0.672
- relative viability ([23]; first compound 0.04 µM): 1.04
- relative viability ([23]; first compound 0.1265 µM): 1.03
- relative viability ([23]; first compound 0.4 µM): 1.1
- relative viability ([23]; first compound 1.265 µM): 1.07
- relative viability ([23]; first compound 4 µM): 1.01
